Consider seven compounds from patent US6448269B1 (Eli Lilly and Company, priority 1993, dated 2002).

Data set [1] relates to human platelet-rich plasma. In words: Platelet aggregation assay (Aggregation-Human PRP/ADP). Format: cell-based. Particulars: 1 min; human platelet-rich plasma incubated with compound 1 minute at 37° C.; ADP-induced aggregation; read-out: Agg: Human PRP/ADP IC50uM. In outline:
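Citrated human PRP (~200-400,000 platelets/μl) from healthy volunteers, stirred, incubated with compound 1 min at 37° C. Aggregation was then triggered, most often by ADP 5 μM, or by 1 μg/ml collagen, 1 μM U46619 or 0.3 μM platelet activating factor, and read in an aggregometer with platelet-poor plasma as reference.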

Data set [2] addresses T1, GPIIb-IIIa (Homo sapiens, UniProt P05106+P08514).
T1 construct: Purified platelet GPIIb-IIIa receptor was prepared as described by Fitzgerald; from tissue; host or cells: platelets
T1 sequence (P08514 32-887 limits assumed): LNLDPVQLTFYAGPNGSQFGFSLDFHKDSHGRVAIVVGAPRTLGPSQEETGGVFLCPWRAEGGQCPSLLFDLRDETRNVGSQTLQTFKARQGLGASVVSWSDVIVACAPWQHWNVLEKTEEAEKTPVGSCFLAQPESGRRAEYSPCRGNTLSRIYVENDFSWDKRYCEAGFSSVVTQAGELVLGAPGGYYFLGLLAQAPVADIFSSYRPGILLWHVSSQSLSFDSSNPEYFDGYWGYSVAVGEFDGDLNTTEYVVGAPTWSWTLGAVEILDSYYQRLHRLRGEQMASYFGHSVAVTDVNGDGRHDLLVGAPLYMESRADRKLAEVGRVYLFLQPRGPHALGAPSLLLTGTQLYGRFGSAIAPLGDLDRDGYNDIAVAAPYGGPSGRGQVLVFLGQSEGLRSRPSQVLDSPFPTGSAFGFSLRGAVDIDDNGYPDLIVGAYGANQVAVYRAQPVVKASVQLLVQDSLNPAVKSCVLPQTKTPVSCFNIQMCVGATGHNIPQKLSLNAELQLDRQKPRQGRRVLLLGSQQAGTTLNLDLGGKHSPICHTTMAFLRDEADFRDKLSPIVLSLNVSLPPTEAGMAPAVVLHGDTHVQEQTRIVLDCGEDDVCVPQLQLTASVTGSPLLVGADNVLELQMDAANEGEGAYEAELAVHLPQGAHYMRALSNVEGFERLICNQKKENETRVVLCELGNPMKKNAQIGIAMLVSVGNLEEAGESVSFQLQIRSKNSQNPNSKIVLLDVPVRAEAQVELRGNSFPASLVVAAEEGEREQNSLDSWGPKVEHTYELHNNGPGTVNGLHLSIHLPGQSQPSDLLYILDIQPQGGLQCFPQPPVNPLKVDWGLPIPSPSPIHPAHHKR
T1 sequence (P05106 27-788): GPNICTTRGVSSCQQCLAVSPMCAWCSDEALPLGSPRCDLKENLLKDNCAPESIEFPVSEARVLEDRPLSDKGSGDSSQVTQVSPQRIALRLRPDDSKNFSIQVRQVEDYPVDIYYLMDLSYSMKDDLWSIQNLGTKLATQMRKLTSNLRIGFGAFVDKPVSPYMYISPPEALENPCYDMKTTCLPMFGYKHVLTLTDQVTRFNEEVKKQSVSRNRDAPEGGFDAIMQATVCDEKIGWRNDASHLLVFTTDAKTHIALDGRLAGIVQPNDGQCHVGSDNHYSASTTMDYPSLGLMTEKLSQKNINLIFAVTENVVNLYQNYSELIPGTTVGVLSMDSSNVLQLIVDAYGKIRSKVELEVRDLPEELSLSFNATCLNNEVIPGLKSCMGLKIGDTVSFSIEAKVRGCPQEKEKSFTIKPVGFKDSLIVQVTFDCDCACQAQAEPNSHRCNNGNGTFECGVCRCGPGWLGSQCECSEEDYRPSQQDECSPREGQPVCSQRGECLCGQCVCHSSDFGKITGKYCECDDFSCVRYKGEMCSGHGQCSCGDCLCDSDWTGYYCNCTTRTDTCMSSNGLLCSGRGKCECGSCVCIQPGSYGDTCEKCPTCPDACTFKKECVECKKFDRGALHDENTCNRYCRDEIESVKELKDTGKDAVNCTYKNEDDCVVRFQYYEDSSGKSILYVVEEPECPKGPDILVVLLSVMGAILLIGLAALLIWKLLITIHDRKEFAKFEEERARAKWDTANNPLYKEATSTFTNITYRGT
Put plainly: ELISA IIb-IIIa assay (fibrinogen binding to immobilized GPIIb-IIIa). Particulars: purified platelet GPIIb-IIIa receptor coated on ELISA plates; biotin-labeled fibrinogen 10 nM, 3 hours at 25° C. In outline: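 Purified platelet GPIIb-IIIa was coated overnight at 4° C in Tris/NaCl/CaCl2 pH 7.4 and BSA-blocked. Biotinylated fibrinogen (10 nM final) was incubated with test compounds for 3 h at 25° C in Ca2+-containing binding buffer. Bound ligand was detected by anti-biotin–alkaline phosphatase with pNPP, OD 405.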
For orientation: ELISA stands for enzyme-linked immunosorbent assay.

For orientation: melting point means the temperature, or range, at which the solid turns liquid.

Structures can show the parent of a compound that is named as a salt.

In the case of `N=C(N)c1ccc(C(=O)Nc2ccc3c(c2)CCC(CC(=O)O)C3=O)s1` (stereo not shown) [Example 106], the melting point is 205 to 208 °C (dec.).
In the case of `CCOCCCC(CC(=O)O)N1CCc2cc(OCCCC3CCNCC3)ccc2C1=O` (stereo not shown) [Example 22, 6-[4-(Piperidn-4-yl)propyloxy]-3,4-dihydro-1-oxo-B-(3-ethoxypropyl)-1-oxo-2(1H)-isoquinoline Propanoic Acid Trifluoroacetate], the results for the IC50 in data set [1] and in data set [2] were 2 µM and 200 nM, respectively.
For `N=C(N)c1ccc(CCc2ccc3c(c2)CCN(CC(=O)O)C3=O)cc1` [Example 3, 6-[2-[4-(Aminoiminomethyl)phenyl]ethyl]-3,4-dihydro-1-oxo-2(1H)-isoquinoline Acetic Acid Trifluoroacetate] the same measures were 1 µM and 110 nM.
In the same order, the values of `CCOC(=O)CC1CCc2cc(NC(=O)c3ccc(C(=N)N(C)C)cc3)ccc2O1` (racemic) [Example 73, Hydrochloride] are 1.2 µM and greater than 10000 nM.
For `N=C(N)c1ccc(C(=O)Nc2ccc3c(c2)CCC(CC(=O)O)O3)c(Cl)c1` (racemic) [Example 76, rac-(6-(N-(4-(Aminoiminomethyl)-2-chlorobenzoyl)amino)-3,4-dihydro-2H-1-benzopyran-2-yl)acetic Acid] the same measures were 0.56 µM and 14 nM.
In the case of `N=C(N)c1ccc(NC(=O)c2ccc3c(c2)CCC(CC(=O)O)C3)cc1` (stereo not shown) [Example 40], the IC50 in data set [1] was found to be 1.6 µM; in data set [2], 53 nM.
For `N=C(N)c1ccc(C(=O)Nc2ccc3c(c2)CCC(CC(=O)O)C3=O)c(F)c1` (stereo not shown) [Example 32] the same measures were 0.1 µM and 4 nM.
